Measured values reported in patent US8372879B2, “4-(heterocycloalkyl) benzene-1,3-diol compounds as tyrosinase inhibitors, process for the preparation thereof and use thereof in human medicine and also in cosmetics” (Galderma Research & Development, priority 2008, dated 2013).
pIC50: −log10 of the molar value.

Tests used:
[1] = system: MNT1 human melanoma cells; assay: Melanogenesis inhibition assay (14C-thiouracil incorporation standardized through 3H-leucine); format: cell-based; conditions: MNT-1, incubation for 24 h, 14C incorporation standardized through 3H incorporation
Method: (§1) The inhibition of melanogenesis is measured in MNT1 human melanoma cells according to a protocol adapted from Reigner et al., Cell Mol Biol (1999) 45: 969-980. The assay is based on the concomitant incorporation of 2 radiolabelled tracers: ^14C-thiouracil is incorporated into the neosynthesized melanin and reflects melanogenesis, whereas ^3H-leucine is incorporated into the proteins and reflects cell viability and, consequently, the toxicity of the compounds tested.
(§2) The MNT1 cells are seeded into 96-well plates in the presence of the test compounds and of the radio-isotopes. After incubation for 24 h at 37° C., the cells are washed and the amount of the 2 radioisotopes is measured. The test compounds are evaluated in terms of dose-response so as to calculate an IC50 for inhibition of melanogenesis on the basis of the ^14C incorporation which is standardized through the ^3H incorporation. An IC50 for cell toxicity is also calculated on the basis of the ^3H incorporation.

[2] = Cell toxicity (3H-leucine incorporation) in melanogenesis assay; format: cell-based; conditions: human, MNT1 human melanoma cells, incubation for 24 h
Method: as §1, §2

tyrosinase = molecular target: T1, tyrosinase (Mus musculus, UniProt P11344); assay: Tyrosinase activity inhibition assay (B16F1 cell lysate, L-tyrosine/MBTH, 520 nm); format: biochemical, murine; conditions: lysate of B16F1 cells, 6 hours of incubation at 37° C.; read-out: Tyrosine hydroxylase/Dopa oxidase IC50
T1 construct: the supernatant obtained constitutes the cell lysate used as tyrosinase source in the enzymatic assay; endogenous in cells; host or cells: B16F1 murine melanoma cells, stimulated with alpha-MSH; detergent/ultrasound lysate supernatant
T1 sequence (P11344 19-533): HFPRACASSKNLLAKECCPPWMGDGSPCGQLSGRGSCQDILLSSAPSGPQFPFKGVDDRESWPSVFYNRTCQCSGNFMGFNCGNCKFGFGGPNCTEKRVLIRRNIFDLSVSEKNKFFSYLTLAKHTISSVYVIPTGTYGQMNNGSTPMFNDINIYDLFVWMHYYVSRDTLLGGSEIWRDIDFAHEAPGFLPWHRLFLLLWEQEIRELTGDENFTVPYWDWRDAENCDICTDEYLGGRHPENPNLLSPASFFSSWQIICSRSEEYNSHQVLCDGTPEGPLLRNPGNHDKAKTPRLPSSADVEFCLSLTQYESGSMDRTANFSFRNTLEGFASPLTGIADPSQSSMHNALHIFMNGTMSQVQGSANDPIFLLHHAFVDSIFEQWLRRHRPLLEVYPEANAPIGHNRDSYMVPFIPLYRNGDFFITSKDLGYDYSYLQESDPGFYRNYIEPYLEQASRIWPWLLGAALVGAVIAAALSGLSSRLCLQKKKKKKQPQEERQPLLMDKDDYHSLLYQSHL
Method: The activity of the inhibitors is measured using a lysate of B16F1 cells (murine melanoma line). In the presence of the L-tyrosine substrate, the tyrosinase present in these cells catalyses the hydroxylation of L-tyrosine to give L-DOPA and then the oxidation of the L-DOPA to give dopaquinone. In the presence of MBTH (3-methyl-2-benzothiazolinone hydrazone), the dopaquinone is trapped so as to form a pink complex which absorbs at 520 nm.
The B16F1 cells are cultured in DMEM medium+10% foetal calf serum+10^−9M α-MSH for 4 days at 37° C. under 7% CO2. They are treated with trypsin, washed in PBS, counted and pelleted. The pellet is taken up at 10^7 cells/ml in lysis buffer (10 mM sodium phosphate, pH 6.8-1% Igepal) and the suspension is treated with ultrasound for 10 seconds. After centrifugation for 30 minutes at 4000 rpm, the supernatant obtained constitutes the cell lysate used as tyrosinase source in the enzymatic assay.
The assays are carried out in duplicate in 384-well plates in a total volume of 50 μl. […]
The plate is incubated at 37° C. and a spectro-photometric reading is carried out at 520 nm after 6 hours of incubation. In order to avoid any possible absorption of the products, the system uses corrected absorbance (absorbance at time 6 h—absorbance at time zero). […]

| SMILES | pIC50 [1] | IC50 at 24 h [2] | pIC50 (tyrosinase) |
| --- | --- | --- | --- |
| CCCCc1ccc(O)cc1O [4-butylresorcinol (Rucinol), 4-butylresorcinol, reference compound] | 4.82 | 55 µM | – |
| Oc1ccc(C2CCOCC2)c(O)c1 [Compound 1, 4-(tetrahydropyran-4-yl)benzene-1,3-diol] | 6.00 | > 999 µM | 7.00 |
| Oc1ccc(C2CCSCC2)c(O)c1 [Compound 2, 4-(tetrahydrothiopyran-4-yl)benzene-1,3-diol] | – | – | 6.40 |
